Measured values as given in ChEMBL document CHEMBL1201862, “PubChem BioAssay data set” (2004).
The source made the active and inactive calls.

Experiments:
Streptokinase A = biological target: T1, Streptokinase A (Streptococcus pyogenes serotype M1, UniProt P10520); assay: S. pyogenes streptokinase expression inhibitors, potency, dose response, plasminogen activation absorbance, OD405 (AID 1914); assay type: functional, Streptococcus pyogenes M1 GAS;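 also: secreted streptokinase activity via plasminogen activation per viability signal from cell pellet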
T1 sequence (P10520 whole entry): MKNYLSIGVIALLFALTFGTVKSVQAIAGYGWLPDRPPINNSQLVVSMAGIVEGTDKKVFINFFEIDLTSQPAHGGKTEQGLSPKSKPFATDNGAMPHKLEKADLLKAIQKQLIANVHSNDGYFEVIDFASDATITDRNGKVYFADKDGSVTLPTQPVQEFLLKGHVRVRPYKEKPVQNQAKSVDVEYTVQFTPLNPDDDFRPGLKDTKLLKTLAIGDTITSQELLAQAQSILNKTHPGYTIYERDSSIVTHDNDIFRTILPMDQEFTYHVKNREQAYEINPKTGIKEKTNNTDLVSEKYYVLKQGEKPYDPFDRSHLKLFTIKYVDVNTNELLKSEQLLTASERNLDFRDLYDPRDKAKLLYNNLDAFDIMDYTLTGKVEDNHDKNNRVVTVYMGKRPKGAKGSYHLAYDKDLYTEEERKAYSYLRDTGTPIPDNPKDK

Streptococcus = assay: Group A Streptococcus viability loss, dose response, counter-screen for streptokinase expression inhibitor project, luminescence, BacTiterGlo (AID 1915); assay type: functional, organism-based;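 also: potency for reduction of bacterial viability or growth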
[1] = system: Streptococcus sp. 'group A'; assay: growth inhibition of control SK(-) GAS strain, dose response, counter-screen for streptokinase expression inhibitor project, luminescence, kanamycin, BacTiterGlo, confirmation (AID 1900); assay type: functional, organism-based
[2] = THP-1 cell cytotoxicity, dose response, cytotoxicity control for Vif-APOBEC3G degradation inhibitor project, THP-1 cells (AID 1117359); assay type: functional; conditions: Human immunodeficiency virus 1, THP-1
[3] = biological target: T2, DNA repair protein RAD52 homolog (Homo sapiens, UniProt P43351); assay type: functional, biochemical
T2 sequence (P43351 whole entry): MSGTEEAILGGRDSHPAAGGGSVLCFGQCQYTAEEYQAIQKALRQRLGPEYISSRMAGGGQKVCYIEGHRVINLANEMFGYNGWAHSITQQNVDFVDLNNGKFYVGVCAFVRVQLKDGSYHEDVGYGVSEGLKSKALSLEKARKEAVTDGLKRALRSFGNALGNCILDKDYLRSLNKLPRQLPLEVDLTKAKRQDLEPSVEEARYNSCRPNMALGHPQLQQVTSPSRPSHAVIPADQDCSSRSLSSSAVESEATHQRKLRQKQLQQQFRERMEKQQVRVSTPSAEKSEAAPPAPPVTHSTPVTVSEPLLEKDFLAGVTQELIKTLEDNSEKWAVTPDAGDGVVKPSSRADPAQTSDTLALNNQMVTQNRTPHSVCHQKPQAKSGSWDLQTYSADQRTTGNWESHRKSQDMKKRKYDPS

Escherichia coli = assay: microbe, parasite or virus in culture
[4] = intracellular Trypanosoma cruzi inhibitors in host cells – cell-based, plate reader, cherry-pick samples, set 3, dose response (AID 651818); assay type: functional;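 also: compounds incubated with infected cells for about four days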
[5] = inhibitors of clade B AD8 Env fusion, dose response, cell-based, cherry-pick (AID 652062); assay type: functional;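 also: luciferase signal from cell-cell fusion driven by HIV-1 clade B AD8 Env; potency is for inhibitors of fusion seen as a drop in luminescence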
[6] = ZM109 Env clade C HIV-1 fusion inhibitors, dose response, HeLa effector, CEM target cells, luciferase, cherry-pick (AID 652058); assay type: functional, cell-based
[7] = inhibitors of HIV Env-driven cell fusion, dose response, cherry-pick (AID 652057); assay type: functional, cell-based
BJ [8] = assay: cytotoxicity toward BJ-TERT fibroblasts, dose response, cell-based, RAS-independent, luminescence (AID 1933); assay type: functional; conditions: Homo sapiens
[9] = Luminescence Cell-Based Dose Retest to Confirm Inhibitors of Cancer Stem Cells. [Related pubchem assays (depositor defined):AID2717, AID2721]; assay type: functional; conditions: Homo sapiens
BJ [10] = assay: cytotoxicity toward BJ-TERT-LT-ST fibroblasts, dose response, cell-based, RAS-independent, luminescence (AID 1935); assay type: functional; conditions: Homo sapiens;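 also: BJ fibroblasts immortalized with TERT plus LT and ST oncogenes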
[11] = cytotoxicity toward DRD oncogenic fibroblasts, dose response, cell-based, non-viral oncogenic, luminescence (AID 1934); assay type: functional; conditions: Homo sapiens
BJ [12] = assay: cells; assay type: functional, cell-based; conditions: Homo sapiens
[13] = cytotoxicity in HEK-293T cells, dose response, cytotoxicity control for TCR NF-kB inhibitor project, luminescence, T-cell screen hits (AID 489026); assay type: functional, cell-based;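 also: cells exposed to compound about 14 hours before the viability readout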
Cytochrome P450 3A4 = Cytochrome P450 3A4 (Homo sapiens, UniProt P08684); conditions: Potency;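 also: confirmatory qHTS run detecting inhibitors and substrates of CYP3A4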
Chain of Cytochrome P450 3A4 (P08684 whole entry): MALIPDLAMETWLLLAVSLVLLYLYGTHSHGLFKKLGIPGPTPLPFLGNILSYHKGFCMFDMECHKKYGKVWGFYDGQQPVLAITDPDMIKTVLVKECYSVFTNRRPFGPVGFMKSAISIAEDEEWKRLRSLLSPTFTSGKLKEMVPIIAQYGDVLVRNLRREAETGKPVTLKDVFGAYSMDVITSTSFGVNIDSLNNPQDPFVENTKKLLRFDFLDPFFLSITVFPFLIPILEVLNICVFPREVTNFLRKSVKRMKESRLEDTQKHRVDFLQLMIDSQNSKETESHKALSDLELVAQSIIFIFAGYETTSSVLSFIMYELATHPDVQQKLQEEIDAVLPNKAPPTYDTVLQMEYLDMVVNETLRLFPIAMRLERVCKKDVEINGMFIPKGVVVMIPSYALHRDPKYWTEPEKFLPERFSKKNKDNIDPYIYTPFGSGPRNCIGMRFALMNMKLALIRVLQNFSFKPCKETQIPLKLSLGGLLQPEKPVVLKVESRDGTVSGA

Structure (SMILES): Cc1nn(-c2ccccc2)c2sc(C(=O)N3CCc4ccccc4C3)cc12
- EC50 (Streptokinase A): > 150 µM (not active)
- EC50 (Streptococcus): 14.6 µM (active)
- EC50 [1]: 4.55 µM (active)
- CC50 [2]: > 40 µM (active)

Structure (SMILES): NCCCC[C@H]1CN=C(N)N1CCC12CC3CC(CC(C3)C1)C2
- AC50 [3]: 23.3 µM (active)

Structure (SMILES): CC(=O)c1cc(CN2CCN(C3CCCCC3)C(CCO)C2)cs1 (configuration not stated)
- AC50 (Escherichia coli): 27.7 µM (active)

Structure (SMILES): C[C@H]1CN([C@@H](C)CO)C(=O)Cc2cc(NC(=O)Cc3cn(C)c4ccccc34)ccc2O[C@@H]1CN(C)Cc1ccc(-c2ccccc2)cc1
- AC50 [4]: 1.72 µM (active)

Structure (SMILES): C[C@H](CO)N1C[C@H](C)[C@@H](CN(C)Cc2ccc(C(F)(F)F)cc2)Oc2c(NC(=O)NC3CCCCC3)cccc2C1=O
- AC50 [4]: 3.92 µM (active)

Structure (SMILES): C[C@H]1CN([C@@H](C)CO)C(=O)Cc2cc(NC(=O)Nc3ccc4c(c3)OCO4)ccc2O[C@@H]1CN(C)Cc1ccc(C(=O)Nc2ccccc2N)cc1
- AC50 [4]: 2.13 µM (active)

Structure (SMILES): COc1ccc(NC(=O)Nc2ccc3c(c2)CC(=O)N([C@@H](C)CO)C[C@H](C)[C@H](CN(C)S(=O)(=O)c2cccs2)O3)cc1
- AC50 [5]: 27.1 µM (active)
- AC50 [6]: 13.2 µM (active)
- AC50 [7]: 12 µM (active)

Structure (SMILES): COc1cccc(S(=O)(=O)N(C)C[C@H]2Oc3cc(C#CCC(C)C)ccc3S(=O)(=O)N([C@@H](C)CO)C[C@H]2C)c1
- AC50 [5]: 34.2 µM (active)
- AC50 [6]: 10.6 µM (active)
- AC50 [7]: 25.1 µM (active)

Structure (SMILES): Cc1ccsc1/C=N/NC(=O)c1cc(-c2ccncc2)nc2ccccc12
- EC50 (BJ [8]): 2.93 µM (inconclusive)
- AC50 [9]: 0.168 µM (active)
- EC50 (BJ [10]): 4.22 µM (inconclusive)
- EC50 [11]: 2.94 µM (active)
- EC50 (BJ [12]): 2.88 µM (active)
- IC50 [13]: 47.1 µM (inactive)

Structure (SMILES): CC(C)(C)NCC(O)CON=C1c2ccccc2-c2ccccc21 (configuration not stated)
- AC50 [3]: 20.1 µM (active)

Structure (SMILES): Nc1ccc(Cl)cc1N
- AC50 (Cytochrome P450 3A4): 7.94 µM (inconclusive)

Structure (SMILES): CCCCS(=N)(=O)CCC(N)C(=O)O (configuration not stated) [BUTHIONINE SULFOXIMINE]
- AC50 (Cytochrome P450 3A4): 20 µM (inconclusive)

Structure (SMILES): CC(=O)OC1CCC23CC1(C)CCC2C(C)(C)CC3OC(C)=O (configuration not stated) [CLOVANEDIOL DIACETATE]
- AC50 (Cytochrome P450 3A4): 15.8 µM (inconclusive)

Structure (SMILES): CCCCC/C=C\C/C=C\CCCCCCCC(=O)O [LINOLEIC ACID]
- AC50 (Cytochrome P450 3A4): 31.6 µM (inconclusive)

Structure (SMILES): Clc1cccc(C(Cl)(Cl)Cl)n1 [NITRAPYRIN]
- AC50 (Cytochrome P450 3A4): 12.6 µM (inconclusive)
